Consider 16 compounds from PubChem BioAssay (NCI).

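A five-concentration, 48-hour dose response in 96-well plates underlies each endpoint, interpolated linearly between surrounding concentrations. The concentration for 50% growth inhibition is given as GI50. At the TGI there is no net growth.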 Where a SMILES comes first, the peptide text is derived from it. [ ]: non-standard residue; d: D form. The star is where a group is joined. Bn2Val = CC(C)[C@@H](C(=O)*)N(Cc1ccccc1)Cc1ccccc1; NMeV = CN[C@H](C(=O)O)C(C)C; X29 = COc1ccc(CN*)c(OC)c1; dNMeA = CN[C@H](C)C(=O)O

What all share (test): NCI tumour cell line growth inhibition, 48 h
Test [1] concerns K-562 leukemia.
Test [2] relates to HOP-92 NSCLC.
The test system of test [3] is SR leukemia.
The test system of test [4] is MALME-3M melanoma.
Test [5] has as its system ACHN renal.
Test [6] deals with CCRF-CEM leukemia.
Test [7] deals with NCI-H522 lung.
For test [8], the system named is NCI/ADR-RES ovarian.
In test [9] the test system is T-47D breast.
In test [10] the test system is MDA-MB-231 breast.

In the case of `CCSCN(C)c1nc(N(C)C)nc(N(C)C)n1`, the TGI in test [1], in [2], in test [3], in [4], in test [5] and in test [6] was over 100 µM throughout. The compound further yielded a TGI in [7] of 91.4 µM.

With `C=C(C)C1CC/C(C)=C/CC[C@]2(C)O[C@@H]2CCC2=CC1OC2=O` (stereo partly specified), the GI50 was over 100 µM in test [8]; 14.6 µM in [1]; 14.4 µM in test [2]; 18.5 µM in test [9]; 19 µM in test [3]; 10.3 µM in test [6]. For the same compound, in test [7], the GI50 was over 100 µM. In addition, the TGI was over 100 µM in [8]; 27.7 µM in test [1]; over 100 µM in test [2]; over 100 µM in test [9]; 51.5 µM in test [3]; 21.9 µM in test [6]. In [7], this compound registered a TGI of over 100 µM.

For the compound `COc1cc(C2C(Cl)C(=O)N2NC(=O)c2ccc(NC(C)=O)cc2)ccc1O` (stereo unspecified), the TGI in [1], in test [2], in test [4], in test [5], in test [6] and in test [7] was over 100 µM in each case.

As to `CCOC(=O)c1cc2c(OCc3ccccc3)c(OC)cc3c2c(n1)N(c1ccc(OC)cc1)C(C)C3` (stereo unspecified), the TGI in test [1] is over 50 µM; in test [2], 42.9 µM; in test [3] it was over 50 µM; in test [4] it was over 50 µM; in [5], over 50 µM; in test [6], over 50 µM. Further, the TGI in [7] is over 50 µM.

Turning to `Cc1nnc2n(c1=O)CCN2C`, the TGI in [10], in test [1], in test [2], in test [9], in [3] and in [4] was over 100 µM in each case. For the same compound, the TGI in test [5] and in test [6] was over 100 µM each time.

As for `C[S+](C)CC1OC(n2cnc3c(N)ncnc32)C(O)C1O` (stereo unspecified), the TGI in [8], in [1], in test [2], in test [4], in test [6] and in test [7] was over 225 µM in each case.

Take `CN(C)CCNC(=O)c1cccc2cc3cc(O)ccc3nc12`: the TGI turned out to be 11.4 µM in test [8]; 11.8 µM in test [1]; 3.81 µM in test [2]; 2.54 µM in test [4]; 5.44 µM in test [6].

For the compound `CC1(C)C2CCC3(OCCO3)C1C(O)C2` (stereo unspecified), the TGI in [1], in test [2], in test [4], in test [5], in test [6] and in [7] was over 100 µM in each case.

In the case of `C=C1[C@@](C)([C@@H]2CCCS2)[C@H]2C(C)=C[C@]1(C)n1c(=O)n(-c3ccccc3)c(=O)n12`, the TGI in [8], in [10], in test [9], in test [4], in test [5] and in test [6] was over 100 µM throughout. Also, the TGI in test [7] is over 100 µM.

As for `COC(=O)CCc1c(Cc2ccc[nH]2)[nH]c(C(=O)OCc2ccccc2)c1C`, the TGI in test [8] was 52.1 µM; in test [10], 28.9 µM; in test [1], 58.5 µM; in [2] it was 51.4 µM; in test [3] it was 66.5 µM; in test [4], 38.3 µM. Further, the TGI is 70.6 µM in [5], over 100 µM in test [6] and 54.4 µM in [7].

Take `NC(=O)c1cc(N(CCO)CCO)c([N+](=O)[O-])cc1[N+](=O)[O-]`: the TGI in [8], in test [1], in [2], in test [9], in [3] and in test [4] was over 100 µM throughout. Further, the TGI in test [5], in test [6] and in test [7] was over 100 µM throughout.

Regarding `CC(=O)OC12c3ccccc3C(c3ccccc31)C1C(=O)N(c3ccccn3)C(=O)C12` (stereo unspecified), the TGI in test [8], in [10], in test [1], in [9], in test [4] and in test [6] was over 100 µM in each case.

For the compound `O=NN(CCF)C(=O)NC1CC2CCC1C2` (stereo unspecified), the TGI in test [8], in [1], in test [2], in [4], in test [6] and in test [7] was over 100 µM throughout.

Consider `CS(=O)(=O)c1nc(-c2cc3c(c(S(C)(=O)=O)n2)CCC3)cc2c1CCCC2`, for which the TGI is over 100 µM in [8]; over 100 µM in [10]; over 100 µM in test [1]; over 100 µM in test [5]; over 100 µM in [6]; 45.9 µM in test [7].

As for `COc1ccc2c(c1)OCCc1cn[nH]c1-2`, the TGI in test [8] is over 100 µM; in [1], over 100 µM; in test [2], 61.6 µM; in test [4], over 100 µM; in [6] it was over 100 µM; in test [7], over 100 µM.

Take `COc1ccc(CNC(=O)[C@@H]2CCCN2C(=O)[C@@H](C)N(C)C(=O)[C@H](C(C)C)N(C)C(=O)[C@@H](NC(=O)[C@H](C(C)C)N(Cc2ccccc2)Cc2ccccc2)C(C)C)c(OC)c1` (Bn2Val-V[NMeV][dNMeA]P-X29): the TGI in test [8] was 12.3 µM; in test [10], 3.46 µM; in [1], over 100 µM; in test [2] it was 9.1 µM; in test [9], 96 µM; in [4], 36.7 µM. Also, the values for the TGI in test [5] and in [7] were 13.9 µM and 24.2 µM, respectively.
